{"source": "patent US20220184070A1", "about": "“LOW-DOSE TRIPLE COMBINATION FORMULATION” (The George Institute for Global Health, priority 2019, published 2022)", "origin": "cited, not measured here", "test_system": "plasma glucose", "note": "Marks after values point to notes of the source that are not given here."}
{"smiles": "N[C@@H](CC(=O)N1CCn2c(nnc2C(F)(F)F)C1)Cc1cc(F)c(F)cc1F", "note": "[Sitagliptin, sitagliptin]", "values": [{"measurement": "Percentage change in plasma glucose from pre-prandial adjusted for placebo, at 2 h PPG", "setting": "single dose 100 mg monotherapy, published studies", "result": "−6.3", "unit": "%"}, {"measurement": "Difference in mean 2 h post-prandial glucose (PPG) vs placebo", "setting": "single dose 100 mg, 180 min, FIG. 4", "result": "~1", "unit": "mmol/L"}, {"measurement": "Maximum difference in plasma glucose between sitagliptin and placebo", "setting": "single dose 100 mg, at 120 min post-dose (90 min post-meal), FIG. 4", "result": 1.5, "unit": "mmol/L"}, {"measurement": "Percentage change in plasma glucose from pre-prandial adjusted for placebo, Maximum", "setting": "single dose 100 mg, maximum achieved at 1.5 h post-prandial, published studies", "result": "−20.3^a %"}, {"measurement": "Time at which maximum PPG and serum insulin were achieved", "setting": "single dose 100 mg, post-dose (0.5 h post-meal), FIG. 4", "result": "~1", "unit": "h"}]}
